Results on nine compounds are retold here after PMC10301393 (Viruses, 2023).

One data set relates to MRC-5 cells. The experiment in a line: Cell morphology in photonic microscope observation. The class given is cell-based, human. Particulars: antiviral assay.
Data set [1] has as its system human coronavirus 229E (HCoV 229E). Nature of the data set: Anti-HCoV 229E assay: reduction in viral titer. Type of data set: cell-based, human coronavirus 229E in MRC-5 human lung fibroblast. Particulars: MRC-5 cells, compound at 3 μg/mL, 72 h, Figure 3 (n = 1).
Data set [2] has the same test system. The experiment in a line: Anti-HCoV 229E assay: reduction in virus-induced cytopathogenic effect. Particulars: MRC-5 cells, compound at 3 μg/mL (16: 6.7 μM), MOIs 0.01–0.001, 72 h, Figure 4 (n = 3). Type of data set: cell-based, human coronavirus 229E in MRC-5 human lung fibroblast. Background: Cytopathic effects are the visible damage that an infection or toxin causes in cultured cells.

For the next data set, the system named is SARS-CoV-2. More on the design: method as in earlier work. Particulars: cited from earlier work.
The next data set relates to SARS-CoV. Particulars: Vero E6 cells; cited from earlier work.
For data set [3], the system named is SARS-CoV 3CL protease (3CLpro). Particulars: cited from earlier work.

In brackets after ≈: the same amount, converted by molar mass.

Regarding `CC(C)c1cc2c(cc1O)[C@@]1(C)CCC[C@@](C)(CN3C(=O)c4cccc(F)c4C3=O)[C@@H]1CC2` [Compound 15, 12-Hydroxy-N,N-(3-fluorophthaloyl)dehydroabietylamine], in the data set on MRC-5 cells, the “modification of the cell morphology” value is on record as “induced modification of the cell morphology”. In the case of `CC(C)c1cc2c(cc1O)[C@@]1(C)CCC[C@@](C)(CN3C(=O)c4ccccc4C3=O)[C@@H]1CC2` [Compound 3, 18-(phthalimid-2-yl) ferruginol], the “reduction in the viral titer” value in data set [1] is “important reductions in the viral titer”. In addition, the “modification of the cell morphology” value in the data set with MRC-5 cells was “induced modification of the cell morphology”.

For the compound `CC(C)c1cc2c(cc1O)[C@@]1(C)CCC[C@@](C)(CN)[C@@H]1CC2` [Compound 14, 12-hydroxydehydroabietylamine], in data set [2], the “reduction in the viral-induced cytopathogenic effect (CPE)” value is on record as “reduce the cytopathogenic effect”. On to `CC(C)c1cc2c(cc1O)[C@@]1(C)CCC[C@@](C)(CO)[C@@H]1CC2` [Compound 12], for which the “reduction in the viral titer” value in data set [1] is on record as about 0.5 log. Consider `CC(C)c1cc2c(cc1O)[C@@]1(C)CCC[C@@](C)(CN3C(=O)c4ccc(F)cc4C3=O)[C@@H]1CC2` [Compound 16, 12-Hydroxy-N,N-(4-fluorophthaloyl)dehydroabietylamine], for which the “reduction in the viral titer” value in data set [1] is “approximately 2 log”. Regarding `Cc1coc2c1C(=O)C(=O)c1c-2ccc2c1CCCC2(C)C` [tanshinone IIA], in the data set on SARS-CoV-2, the “IC50 (anti-SARS-CoV-2 activity)” value is 4.08 µg/mL (≈ 13.9 µM).

As to `CC(C)c1cc2c(cc1O)[C@@]1(C)CCCC(C)(C)[C@@H]1CC2` [Compound 1, (+)-ferruginol], in the data set on SARS-CoV, the EC50 is 1390 nM. Moreover, the “inhibition for SARS-CoV 3CL protease” value in data set [3] (below 100 μM) was “did not show inhibition”. Further, the IC50 in data set [3] is 49600 nM. Turning to `C=C(CO)c1ccc2c(c1)CC[C@H]1[C@@](C)(C(=O)O)CCC[C@]21C` [Compound 7, jiadifenoic acid C, reference compound], the “reduction in the viral-induced cytopathogenic effect (CPE)” value in data set [2] is recorded as “no activity”. On to `CC(=O)Oc1cc2c(cc1C(C)C)C=C[C@H]1C(C)(C)[C@@H](OC(C)=O)CC[C@]21C` [Compound 2, 3β,12-diacetoxyabieta-6,8,11,13-tetraene, reference compound], for which, in the data set on SARS-CoV, the EC50 was 1570 nM.

For orientation: EC50 means the concentration that produces a half-maximal response. Usually IC50 stands for the midpoint of a concentration-inhibition curve.
